From patent publication US20040116297A1, “Use of polyprenol and its derivatives for facilitating growth of plants” (priority 2001, published 2004)

Experiments:
[1] = system: corn; experiment: Effect on growth of corn; format: in vivo; conditions: for Early plant height / Fresh weight / Tiller number: corn seeds immersed 2 hrs at 100 ppm, after 60 days; for Rate of increase of early plant height / Rate of increase of fresh weight / Rate of increase of tiller number: corn, 100 ppm, vs control
Method: [Worded in the source for another target; used here, by the source, with some conditions changed.] (§1) Then, the treated seeds were dried for 24 hrs at 25° C. Round pots of 25 cm in diameter (7 L capacity) were filled with soil for horticulture, and 50 pots (2 seeds per pot) were sown. After 60 days at about 25° C., the crop growth was evaluated by rate of emergence and early plant height. […] As a control, bean seeds which were not immersed in the polyprenol preparation were used.

[2] = system: bean; experiment: Effect on growth of bean; format: in vivo
Method: (§2) 100 g of bean seeds were immersed in a 100 ml solution containing the polyprenol preparation formulated in Example 3 at a concentration of 100 ppm, for 1 hr. Then, the treated seeds were dried for 24 hrs at 25° C. Round pots of 25 cm in diameter (7 L capacity) were filled with soil for horticulture, and 50 pots (2 seeds per pot) were sown. After 60 days at about 25° C., the crop growth was evaluated by rate of emergence and early plant height. The test was repeated 3 times, and the average values are represented in Table 7. As a control, bean seeds which were not immersed in the polyprenol preparation were used.
In example 4, the compound having chloride group instead of hydroxyl group can be synthesized. The compound was evaluated on effect on crop growth. 100 g of bean seeds were immersed in a 100 ml solution containing the polyprenol preparation formulated in Example 4 at a concentration of 100 ppm, for 1 hr. Then, the treated seeds were dried for 24 hrs. Round pots of 25 cm in diameter (7 L capacity) were filled with soil for horticulture, and 50 pots (2 seeds per pot) were sown. After 60 days, the crop growth was evaluated. The test was repeated 3 times, and the average values are represented in Table 14. As a control, bean seeds which were not immersed in the polyprenol preparation were used.
as §2, with “Example 5” for “Example 3”, “24 hrs.” for “24 hrs at 25° C.”, “60 days,” for “60 days at about 25° C.,”, “was evaluated.” for “was evaluated by rate of emergence and early plant height.”, “Table 16.” for “Table 7.”

[3] = system: red pepper; experiment: Effect on growth of red pepper; format: in vivo; conditions: 100 ppm
Method: [Worded in the source for another target; used here, by the source, with some conditions changed.] as §1

[4] = system: cabbage; conditions: cited from earlier work
[5] = system: rice; conditions: depending on the plant breeding; cited from earlier work
[6] = system: radish; conditions: cited from earlier work
[7] = bean seeds immersed 1 hr at 100 ppm, after 60 days
[8] = foliage treatment after growing for 20 days

## polyprepyl dimethyl sulfonium bromide [Example 6-7]
[1]
  Early plant height: 109.5 cm
  Fresh weight: 70.1 g
  Tiller number: 9.2
  Rate of increase of early plant height: 0.8%
  Rate of increase of fresh weight: 34.8%
  Rate of increase of tiller number: 12.1%

## Polyprenyl Methyl Sulfide [Example 6-5]
[1]
  Early plant height: 108.9 cm
  Fresh weight: 65.7 g
  Tiller number: 8.5
  Rate of increase of early plant height: 0.2%
  Rate of increase of fresh weight: 26.3%
  Rate of increase of tiller number: 3.6%

## Polyprenol of Formula I, in which m is 18 [Example 4]
[2]; [7]
  Early plant height: 68.2 cm
  No. of pods: 35.4
  Rate of emergence: 55.7%
[2]; bean, 100 ppm, summary statement
  Increase of all factors tested (early plant height, rate of emergence, pod number): more than 7%
[2]; bean, 100 ppm, vs control
  Rate of increase of No. of pods: 17.2%
  Rate of increase of early plant height: 7.74%
  Rate of increase of rate of emergence: 7.32%
[3]; [8]
  Early plant length: 70.5 cm
  Flower number: 8.4
  Trunk diameter: 8.5 mm
[3]; vs control
  Rate of increase of early plant length: 11.7%
  Rate of increase of flower number: 10.5%
  Rate of increase of trunk diameter: 1.2%

## Polyprenyl Methyl Ether [Example 6-4]
[1]
  Early plant height: 110.1 cm
  Fresh weight: 60.3 g
  Tiller number: 8.7
  Rate of increase of early plant height: 1.3%
  Rate of increase of fresh weight: 15.9%
  Rate of increase of tiller number: 6.0%

## Polyprenyl Stearate [Example 6-3]
[1]
  Early plant height: 109.1 cm
  Fresh weight: 68.0 g
  Tiller number: 8.6
  Rate of increase of early plant height: 0.4%
  Rate of increase of fresh weight: 30.7%
  Rate of increase of tiller number: 4.8%

## polyprenyl ethyl carbonate [Example 6-6]
[1]
  Early plant height: 109.6 cm
  Fresh weight: 61.3 g
  Tiller number: 8.4
  Rate of increase of early plant height: 0.9%
  Rate of increase of fresh weight: 17.8%
  Rate of increase of tiller number: 2.4%

## CCCCCCCCCCCCCCCCCCCCCCCCCCCCCCO [tricontanol]
[4]
  Increase of yield: 83%
[5]
  Increase of yield: 14.8-41%
[6]
  Increase of yield: 108.4%
